The assay relates to cardiac microtissues (CMTs). It is filed as cell-based. The following applies: measured after 1 h. The procedure: In a first example, cardiomyocytes were isolated from 0-1 day neonatal Sprague Dawley rat pups by a Trypsin digestion protocol as previously described. The resulting cell population was immediately subjected to CMT generation. CMTs were cultured in high glucose DMEM (Mediatech, Inc.) containing 10% horse serum (Invitrogen), 2% chick embryo extract (Charles River Laboratories International, Inc.), 4 mM L-glutamine, 1 mM sodium pyruvate, 100 units/mL penicillin, and […] streptomycin (all from Invitrogen). Cell culture medium was changed every day. Stock solution of Isoproterenol (Sigma-Aldrich) of 10 mM was made in MilliQ water and stock solution of Digoxin (GlaxoSmithKline) of 10 mM was made in DMSO. Calcium staining was obtained by incubating CMTs for 1 h with the acetoxymethyl ester of fluo-3 (fluo-3/(AM), Invitrogen) as a fluorescent dye at 2 μM in PBS with 0.02% of Pluronic F127 (BASF).
Before cell seeding, the PDMS templates were sterilized in 70% ethanol followed by UV irradiation for 15 min and treated with 0.2% Pluronic F127 for 60 min to reduce cell adhesion. A reconstitution mixture, consisting of 1 mg/mL or 2.5 mg/mL liquid neutralized collagen I from rat tail (BO Biosciences) and 0.5 mg/mL fibrinogen from bovine plasma (Sigma-Aldrich), was then added to the surface of the substrates on ice and templates were degassed under vacuum to remove bubbles in the liquid. A cooled suspension of half a million cells within reconstitution mixture was then added to the substrate and the entire assembly was centrifuged to drive the cells into the micropatterned wells, resulting in around 500 cells per well. Excess collagen/fibrinogen and cells were removed by de-wetting the surface of the substrate before incubating at 37° C. to induce collagen polymerization. The appropriate media was then added to each substrate. By using a live/dead cell viability assay (Invitrogen), cell viability over time was estimated.
For quantifying microtissue forces, brightfield and fluorescence images were taken at 20 Hz within each template, using a Photometrics Evolve EMCCOcamera (Photometrics), and an A-Plan 10× objective on a Nikon Eclipse Ti (Nikon Instruments Inc.) equipped with a live cell incubator. Only tissues that were uniformly anchored to the tips of the cantilevers were included in the analysis. The displacement of fluorescent micro-beads at the top of the cantilevers was then tracked with using the SpotTracker plug-in in ImageJ (National Institutes of Health).
In one example, it was also examined whether CMTs responded appropriately to two cardiac compounds, isoproterenol and digoxin. To study the dose-response of the CMTs to these compounds, their concentrations were varied from 1 nM to 10 μM and the dynamic stress and the spontaneous frequency of CMTs were measured after 1 h (FIG. 13). Isoproterenol can be used as a β-adrenergic agonist with a positive chronotropic effect whereas digoxin is a cardiac glycoside that inhibits Na+/K+-ATPase (sodium pump), activates sarcoplasmic reticulum Ca2+-release channels and induces positive inotropic effects.

Two compounds from patent US9512396B2, “In vitro microphysiological system for high throughput 3D tissue organization and biological function” (The Trustees of the University of Pennsylvania, priority 2011, dated 2016) can be followed below.

Where two headings read alike, the source gives them in different places.

On to `C[C@H]1O[C@@H](O[C@H]2[C@@H](O)C[C@H](O[C@H]3[C@@H](O)C[C@H](O[C@H]4CC[C@@]5(C)[C@H](CC[C@@H]6[C@@H]5C[C@@H](O)[C@]5(C)[C@@H](C7=CC(=O)OC7)CC[C@]65O)C4)O[C@@H]3C)O[C@@H]2C)C[C@H](O)[C@@H]1O` [Digoxin], for which the maximal stress increase (1 μM) is 22±4%. For the same compound, for the setting “10 μM”, the “chronotropic effect (spontaneous frequency)” value is recorded as “strong negative chronotropic effect”, the “inotropic effect (dynamic stress)” value is “almost no inotropic effect” and the spontaneous frequency result was “under 0.04±0.01 Hz”. In addition, the “inotropic response (dynamic stress)” value (between 1 nM and 1 μM) is reported as “positive inotropic response”.

Consider `CC(C)NCC(O)c1ccc(O)c(O)c1` (centres unmarked) [Isoproterenol], for which the “effect on dynamic stress and spontaneous frequency of CMTs” value (1 nM) is given as “no observable effect”. The “change of spontaneous frequency” value (1 μM) is on record as “doubling” and the “change of spontaneous frequency” value (10 μM) was “tripling”. Moreover, for the setting “1 and 10 nM (so in the source)”, the “inotropic effect (contractility, dynamic stress)” value is “slight negative inotropic effect”. Also, the “chronotropic action (spontaneous frequency)” value (1 and 10 μM) is “positive chronotropic action”. In addition, the “inotropic action (contractility, dynamic stress)” value (10 and 100 nM) is “slight positive inotropic action”.
